Measurements reported in US20260232767A1, “INTERLEUKIN-23 RECEPTOR ANTAGONIST PEPTIDES FOR USE IN THE TREATMENT OF PSORIASIS” (Janssen Pharmaceutica NV, priority 2023, published 2026).

Test system: subjects with moderate-to-severe plaque psoriasis
Experiment: IGA score, Example 2
Format: in vivo, human
Description: Described below is a multicenter, long-term extension (LTE), double-blind, dose-ranging, parallel group interventional study in participants from Example 1 to evaluate the long-term efficacy and safety of the hydrochloride salt of the compound of Formula (I) for the treatment of moderate-to-severe plaque psoriasis. Patients from Example 1 continued to receive the same dose of the compound of Formula (I) for an additional 36-week treatment period with a 4-week safety follow up period after the last administration of the compound of Formula (I). Patients randomized to placebo in Example 1 received the compound of Formula (I) at a dose of 100 mg QD starting at Week 16 of Example 1 (FIG. 21).
Secondary endpoints included additional change from baseline of Example 1 in PASI, IGA, and PSSD at Week 52, including the proportions of subjects that achieved PAST 90, PAST 100, an IGA score of cleared (0) or minimal (1), PSSD symptoms score=0, and PSSD signs score=0.

[1] = Week 20, Placebo → 100 mg QD, N=35
[2] = Week 24, Placebo → 100 mg QD, N=35
[3] = Week 28, Placebo → 100 mg QD, N=35
[4] = Week 32, Placebo → 100 mg QD, N=35
[5] = Week 40, Placebo → 100 mg QD, N=35
[6] = Week 52, Placebo → 100 mg QD, N=35

CC(=O)NCCCC[C@@H]1NC(=O)[C@H](Cc2c[nH]c3c(C)cccc23)NC(=O)[C@H]([C@@H](C)O)NC(=O)[C@H](CC(N)=O)NC(=O)[C@@H](NC(C)=O)C(C)(C)SSC(C)(C)[C@@H](C(=O)N[C@@H](Cc2ccc(OCCN)cc2)C(=O)N[C@@H](Cc2ccc3ccccc3c2)C(=O)NC2(C(=O)N[C@@H](CCC(=O)O)C(=O)N[C@@H](CC(N)=O)C(=O)N[C@@H](Cc3cccnc3)C(=O)N(C)CC(N)=O)CCOCC2)NC1=O [IL-23 receptor antagonist peptide, Ac-[Pen]*-N-T-[W(7-Me)]-[Lys(Ac)]-[Pen]*-Phe[4-(2-aminoethoxy)]-[2-Nal]-[THP]-E-N-[3-Pal]-Sarc-NH2 (*[Pen]-[Pen]* formdisulfidebond)]
IGA Score ≤2 (‘Mild’or better), subjects (%) (Week 20, 100 mg QD, N=43): (72.1%)
IGA Score = 0 (‘Cleared’) or 1 (‘Minimal’), subjects (%) [1]: (28.6%)
IGA Score = 0 (‘Cleared’), subjects (%) [1]: (5.7%)
IGA Score ≤2 (‘Mild’or better), subjects (%) [1]: (71.4%)
IGA Score = 0 (‘Cleared’) or 1 (‘Minimal’), subjects (%) (Week 24, 25 mg BID, N=41): (39.0%)
IGA Score = 0 (‘Cleared’), subjects (%) (Week 24, 25 mg BID, N=41): (19.5%)
IGA Score ≤2 (‘Mild’or better), subjects (%) (Week 24, 25 mg BID, N=41): (75.6%)
IGA Score = 0 (‘Cleared’) or 1 (‘Minimal’), subjects (%) (Week 24, 25 mg QD, N=43): (37.2%)
IGA Score = 0 (‘Cleared’), subjects (%) (Week 24, 25 mg QD, N=43): (16.3%)
IGA Score ≤2 (‘Mild’or better), subjects (%) (Week 24, 25 mg QD, N=43): (67.4%)
IGA Score = 0 (‘Cleared’) or 1 (‘Minimal’), subjects (%) (Week 24, 50 mg QD, N=43): (60.5%)
IGA Score = 0 (‘Cleared’), subjects (%) (Week 24, 50 mg QD, N=43): (32.6%)
IGA Score ≤2 (‘Mild’or better), subjects (%) (Week 24, 50 mg QD, N=43): (81.4%)
IGA Score = 0 (‘Cleared’) or 1 (‘Minimal’), subjects (%) (Week 24, 100 mg BID, N=42): (73.8%)
IGA Score = 0 (‘Cleared’), subjects (%) (Week 24, 100 mg BID, N=42): (38.1%)
IGA Score ≤2 (‘Mild’or better), subjects (%) (Week 24, 100 mg BID, N=42): (78.6%)
IGA Score = 0 (‘Cleared’) or 1 (‘Minimal’), subjects (%) (Week 24, 100 mg QD, N=43): (65.1%)
IGA Score = 0 (‘Cleared’), subjects (%) (Week 24, 100 mg QD, N=43): (23.3%)
IGA Score ≤2 (‘Mild’or better), subjects (%) (Week 24, 100 mg QD, N=43): (76.7%)
IGA Score = 0 (‘Cleared’) or 1 (‘Minimal’), subjects (%) [2]: (54.3%)
IGA Score = 0 (‘Cleared’), subjects (%) [2]: (14.3%)
IGA Score ≤2 (‘Mild’or better), subjects (%) [2]: (85.7%)
IGA Score = 0 (‘Cleared’) or 1 (‘Minimal’), subjects (%) (Week 28, 25 mg BID, N=41): (41.5%)
IGA Score = 0 (‘Cleared’), subjects (%) (Week 28, 25 mg BID, N=41): (19.5%)
IGA Score ≤2 (‘Mild’or better), subjects (%) (Week 28, 25 mg BID, N=41): (73.2%)
IGA Score = 0 (‘Cleared’) or 1 (‘Minimal’), subjects (%) (Week 28, 25 mg QD, N=43): (37.2%)
IGA Score = 0 (‘Cleared’), subjects (%) (Week 28, 25 mg QD, N=43): (18.6%)
IGA Score ≤2 (‘Mild’or better), subjects (%) (Week 28, 25 mg QD, N=43): (65.1%)
IGA Score = 0 (‘Cleared’) or 1 (‘Minimal’), subjects (%) (Week 28, 50 mg QD, N=43): (62.8%)
IGA Score = 0 (‘Cleared’), subjects (%) (Week 28, 50 mg QD, N=43): (16.3%)
IGA Score ≤2 (‘Mild’or better), subjects (%) (Week 28, 50 mg QD, N=43): (76.7%)
IGA Score = 0 (‘Cleared’) or 1 (‘Minimal’), subjects (%) (Week 28, 100 mg BID, N=42): (64.3%)
IGA Score = 0 (‘Cleared’), subjects (%) (Week 28, 100 mg BID, N=42): (42.9%)
IGA Score ≤2 (‘Mild’or better), subjects (%) (Week 28, 100 mg BID, N=42): (78.6%)
IGA Score = 0 (‘Cleared’) or 1 (‘Minimal’), subjects (%) (Week 28, 100 mg QD, N=43): (62.8%)
IGA Score = 0 (‘Cleared’), subjects (%) (Week 28, 100 mg QD, N=43): (25.6%)
IGA Score ≤2 (‘Mild’or better), subjects (%) (Week 28, 100 mg QD, N=43): (74.4%)
IGA Score = 0 (‘Cleared’) or 1 (‘Minimal’), subjects (%) [3]: (60.0%)
IGA Score = 0 (‘Cleared’), subjects (%) [3]: (17.1%)
IGA Score ≤2 (‘Mild’or better), subjects (%) [3]: (85.7%)
IGA Score = 0 (‘Cleared’) or 1 (‘Minimal’), subjects (%) (Week 32, 25 mg BID, N=41): (46.3%)
IGA Score = 0 (‘Cleared’), subjects (%) (Week 32, 25 mg BID, N=41): (22.0%)
IGA Score ≤2 (‘Mild’or better), subjects (%) (Week 32, 25 mg BID, N=41): (73.2%)
IGA Score = 0 (‘Cleared’) or 1 (‘Minimal’), subjects (%) (Week 32, 25 mg QD, N=43): (39.5%)
IGA Score = 0 (‘Cleared’), subjects (%) (Week 32, 25 mg QD, N=43): (18.6%)
IGA Score ≤2 (‘Mild’or better), subjects (%) (Week 32, 25 mg QD, N=43): (60.5%)
IGA Score = 0 (‘Cleared’) or 1 (‘Minimal’), subjects (%) (Week 32, 50 mg QD, N=43): (58.1%)
IGA Score = 0 (‘Cleared’), subjects (%) (Week 32, 50 mg QD, N=43): (30.2%)
IGA Score ≤2 (‘Mild’or better), subjects (%) (Week 32, 50 mg QD, N=43): (79.1%)
IGA Score = 0 (‘Cleared’) or 1 (‘Minimal’), subjects (%) (Week 32, 100 mg BID, N=42): (66.7%)
IGA Score = 0 (‘Cleared’), subjects (%) (Week 32, 100 mg BID, N=42): (40.5%)
IGA Score ≤2 (‘Mild’or better), subjects (%) (Week 32, 100 mg BID, N=42): (78.6%)
IGA Score = 0 (‘Cleared’) or 1 (‘Minimal’), subjects (%) (Week 32, 100 mg QD, N=43): (67.4%)
IGA Score = 0 (‘Cleared’), subjects (%) (Week 32, 100 mg QD, N=43): (25.6%)
IGA Score ≤2 (‘Mild’or better), subjects (%) (Week 32, 100 mg QD, N=43): (76.7%)
IGA Score = 0 (‘Cleared’) or 1 (‘Minimal’), subjects (%) [4]: (65.7%)
IGA Score = 0 (‘Cleared’), subjects (%) [4]: (20.0%)
IGA Score ≤2 (‘Mild’or better), subjects (%) [4]: (80.0%)
IGA Score = 0 (‘Cleared’) or 1 (‘Minimal’), subjects (%) (Week 40, 25 mg BID, N=41): (31.7%)
IGA Score = 0 (‘Cleared’), subjects (%) (Week 40, 25 mg BID, N=41): (17.1%)
IGA Score ≤2 (‘Mild’or better), subjects (%) (Week 40, 25 mg BID, N=41): (68.3%)
IGA Score = 0 (‘Cleared’) or 1 (‘Minimal’), subjects (%) (Week 40, 25 mg QD, N=43): (41.9%)
IGA Score = 0 (‘Cleared’), subjects (%) (Week 40, 25 mg QD, N=43): (11.6%)
IGA Score ≤2 (‘Mild’or better), subjects (%) (Week 40, 25 mg QD, N=43): (67.4%)
IGA Score = 0 (‘Cleared’) or 1 (‘Minimal’), subjects (%) (Week 40, 50 mg QD, N=43): (58.1%)
IGA Score = 0 (‘Cleared’), subjects (%) (Week 40, 50 mg QD, N=43): (23.3%)
IGA Score ≤2 (‘Mild’or better), subjects (%) (Week 40, 50 mg QD, N=43): (79.1%)
IGA Score = 0 (‘Cleared’) or 1 (‘Minimal’), subjects (%) (Week 40, 100 mg BID, N=42): (66.7%)
IGA Score = 0 (‘Cleared’), subjects (%) (Week 40, 100 mg BID, N=42): (40.5%)
IGA Score ≤2 (‘Mild’or better), subjects (%) (Week 40, 100 mg BID, N=42): (78.6%)
IGA Score = 0 (‘Cleared’) or 1 (‘Minimal’), subjects (%) (Week 40, 100 mg QD, N=43): (65.1%)
IGA Score = 0 (‘Cleared’), subjects (%) (Week 40, 100 mg QD, N=43): (27.9%)
IGA Score ≤2 (‘Mild’or better), subjects (%) (Week 40, 100 mg QD, N=43): (69.8%)
IGA Score = 0 (‘Cleared’) or 1 (‘Minimal’), subjects (%) [5]: (57.1%)
IGA Score = 0 (‘Cleared’), subjects (%) [5]: (31.4%)
IGA Score ≤2 (‘Mild’or better), subjects (%) [5]: (74.3%)
IGA Score = 0 (‘Cleared’) or 1 (‘Minimal’), subjects (%) (Week 52, 25 mg BID, N=41): (46.3%)
IGA Score = 0 (‘Cleared’), subjects (%) (Week 52, 25 mg BID, N=41): (19.5%)
IGA Score ≤2 (‘Mild’or better), subjects (%) (Week 52, 25 mg BID, N=41): (63.4%)
IGA Score = 0 (‘Cleared’) or 1 (‘Minimal’), subjects (%) (Week 52, 25 mg QD, N=43): (37.2%)
IGA Score = 0 (‘Cleared’), subjects (%) (Week 52, 25 mg QD, N=43): (14.0%)
IGA Score ≤2 (‘Mild’or better), subjects (%) (Week 52, 25 mg QD, N=43): (55.8%)
IGA Score = 0 (‘Cleared’) or 1 (‘Minimal’), subjects (%) (Week 52, 50 mg QD, N=43): (60.5%)
IGA Score = 0 (‘Cleared’), subjects (%) (Week 52, 50 mg QD, N=43): (23.3%)
IGA Score ≤2 (‘Mild’or better), subjects (%) (Week 52, 50 mg QD, N=43): (79.1%)
IGA Score = 0 (‘Cleared’) or 1 (‘Minimal’), subjects (%) (Week 52, 100 mg BID, N=42): (73.8%)
IGA Score = 0 (‘Cleared’), subjects (%) (Week 52, 100 mg BID, N=42): (42.9%)
IGA Score ≤2 (‘Mild’or better), subjects (%) (Week 52, 100 mg BID, N=42): (76.2%)
IGA Score = 0 (‘Cleared’) or 1 (‘Minimal’), subjects (%) (Week 52, 100 mg QD, N=43): (60.5%)
IGA Score = 0 (‘Cleared’), subjects (%) (Week 52, 100 mg QD, N=43): (30.2%)
IGA Score ≤2 (‘Mild’or better), subjects (%) (Week 52, 100 mg QD, N=43): (67.4%)
IGA Score = 0 (‘Cleared’) or 1 (‘Minimal’), subjects (%) [6]: (65.7%)
IGA Score = 0 (‘Cleared’), subjects (%) [6]: (31.4%)
IGA Score ≤2 (‘Mild’or better), subjects (%) [6]: (77.1%)
